# Data as given in patent USH25H, “Thiophosphoryl triamide as a urease inhibitor” (Tennessee Valley Authority, priority 1985, dated 1986).
# What was measured:
# [1] = tested on: soil urease (Hastings silt loam); experiment: Urea hydrolysis in bands of urea plus inhibitor in soil (banded soil system); format: biochemical; conditions: for % inhibition, as measured by percent urea unhydrolyzed: 41 mg inhibitor + 410 mg urea per band, Hastings silt loam, 25° C.
# Text: Another advantage of the banded configuration compared with mixing throughout the soil is that slightly soluble test compounds can be easily band applied, whereas it is difficult to achieve a known degree of mixing of a small quantity of slightly soluble test compound with soil. The banded configuration also enables testing for urease inhibition under realistic soil conditions prior to the development of techniques for cogranulating a wide range of test compounds with urea. […] Urease-active soil (Hastings silt loam) was moistened to a moisture content of 20% (dry weight basis) and preincubated at room temperature for two days. Plexiglas containers (6×6×6 -cm) were one-half filled with soil and packed to a bulk density of 1.1 g/cm^3. Urea or urea plus inhibitor (thoroughly mixed) was distributed in a narrow band 6-cm long on the soil surface. The containers then were filled with soil, again packing to a bulk density of 1.1 g/cm^3. The containers were incubated at 25° C. for the desired reaction period, after which the containers were frozen to about -5° C. to stop urea hydrolysis. Immediately prior to extracting the remaining urea from the soil, said soil was allowed to thaw. Soil from each container was thoroughly mixed, and a 10-g sample was extracted with 100 ml of 2 M KCl containing phenylmercuric acetate to prevent urea hydrolysis during handling [L. A. Douglass and J. M. Bremner, Soil Sci. Soc. Am.
# Urease-active soil (Hastings silt loam) was moistened to a moisture content of 20% and preincubated at room temperature for two days. Plexiglas containers (6×6×6 cm) were one-half filled with soil and packed to a bulk density of 1.1 g/cm^3. Urea or urea plus inhibitor (thoroughly mixed) was distributed in a narrow band 6-cm long on the surface of the soil. The containers then were filled with soil and again packed to a bulk density of 1.1 g/cm^3. The containers were incubated at 25° C. for the desired reaction period. The soil from each container was thoroughly mixed, and a 10-g sample was extracted with 100 ml of 2 M KCl containing 5 ppm phenylmercuric acetate to prevent urea hydrolysis during handling [L. A. Douglass and J. M. Bremner, Soil Sci. Soc. Am. […] The urea in the extracts was determined colorimetrically as a measure of the unhydrolyzed urea.
# [2] = tested on: soil urease (Crowley silt loam); experiment: Well-mixed inhibitor-soil incubation test, urea added at intervals (modified Douglass and Bremner procedure); format: biochemical; conditions: for Percent urea unhydrolyzed (higher = more urease inhibition): 7 micromoles per 120 g Crowley soil, 30° C., 16 hours with urea
# Experimental: Test compounds in Example II, infra, were evaluated in soil systems by a modification of the Douglass and Bremner procedure [L. A. Douglass and J. W. Bremner, Soil Biol. Biochem. 3, 309-315 (1971)] in which solutions or suspensions of the test compounds were mixed throughout the soil. Then at selected time intervals urea was added to the soil-inhibitor mixtures. The advantage of this procedure is that soil urease inhibition by the test compounds can be detected for time periods lasting up to several weeks or longer.
# (§1) Specifics of the procedure for evaluating the test compounds in Example II were the following. Urease-active soil (Crowley silt loam from Louisiana) was moistened to a moisture content of 16% (dry weight basis) and preincubated at room temperature for two days. One milliliter of solution or suspension containing 7 micromoles of each test compound was added to 120 g of moist soil and mixed well. Polyvinylchloride cylinders 12-cm long and 4 cm in diameter were filled with the inhibitor-soil mixtures, packed to a bulk density of about 0.9 g/cm^3, and covered with a perforated plastic film. […] At each time interval, 1 ml of urea solution containing 50 mg of urea was mixed well with the inhibitor-soil mixture from a single column. The urea-inhibitor-soil mixture was packed in a column to a bulk density of about 0.9 g/cm^3, covered with a perforated plastic film, and reincubated for 16 hours at 30° C. Following the 16 hours of reincubation, about 120 g of the urea-inhibitor-soil mixture was extracted with 250 ml of 2 M KCl containing 5 ppm of […]. The KCl-PPDA extracts were analyzed on the Auto Analyzer II [Technicon method No. 40001 FD4, Technicon, Tarrytown, N.Y., U.S.A. (1974)]. Three replicates were used on all treatments and checks.
# as §1, with “are as follows.” for “were the following.”, “New York,” for “N.Y.,”, “checks. Two groups of compounds were tested as indicated in Table IV as Test Series I and Test Series II.” for “checks.”
# urease [3] = conditions: literature and earlier patents; cited from earlier work
# urease [4] = conditions: IFDC, unpublished results; cited from earlier work
# [5] = Test Series I, inhibitor incubation 0 days
# [6] = Test Series I, inhibitor incubation 3 days
# [7] = Test Series I, inhibitor incubation 7 days
# [8] = Test Series I, inhibitor incubation 14 days
# [9] = Test Series I, inhibitor incubation 21 days
# [10] = Test Series I, inhibitor incubation 35 days
# [11] = Test Series II, inhibitor incubation 0 days
# [12] = Test Series II, inhibitor incubation 7 days
# [13] = Test Series II, inhibitor incubation 15 days
# [14] = Test Series II, inhibitor incubation 21 days
SMILES,"% inhibition, as measured by percent urea unhydrolyzed ([1]; Test Series I, 3 days) [%]","% inhibition, as measured by percent urea unhydrolyzed ([1]; Test Series I, 6 days) [%]","% inhibition, as measured by percent urea unhydrolyzed ([1]; Test Series II, 0 days) [%]","% inhibition, as measured by percent urea unhydrolyzed ([1]; Test Series II, 3 days) [%]","% inhibition, as measured by percent urea unhydrolyzed ([1]; Test Series II, 6 days) [%]","Percent urea unhydrolyzed (higher = more urease inhibition) [2, 5] [%]","Percent urea unhydrolyzed (higher = more urease inhibition) [2, 6] [%]","Percent urea unhydrolyzed (higher = more urease inhibition) [2, 7] [%]","Percent urea unhydrolyzed (higher = more urease inhibition) [2, 8] [%]","Percent urea unhydrolyzed (higher = more urease inhibition) [2, 9] [%]","Percent urea unhydrolyzed (higher = more urease inhibition) [2, 10] [%]","Percent urea unhydrolyzed (higher = more urease inhibition) [2, 11] [%]","Percent urea unhydrolyzed (higher = more urease inhibition) [2, 12] [%]","Percent urea unhydrolyzed (higher = more urease inhibition) [2, 13] [%]","Percent urea unhydrolyzed (higher = more urease inhibition) [2, 14] [%]",urease inhibition (in words) reported by previous workers (urease [3]),type of urease inhibition (urease [4]),"effectiveness as an inhibitor of soil urease activity compared with PPDA (in words) ([1]; Table III, FIGS. 1 and 2, three-day and six-day tests)","urease inhibitory activity remaining after long inhibitor incubation (in words) ([2]; up to 21 days incubation, Table IV, FIGS. 3 and 4)"
"NP(N)(=O)Oc1ccccc1 [PPDA, Phenyl phosphorodiamidate]",62.6,10.1,96.4,90.3,58.2,100,65,59,33,13,2,89,38,37,11,extremely potent inhibitor of urease activity,competitive inhibition,–,–
"NP(N)(N)=O [PTA, Phosphoryl triamide]",54.6,2.6,–,–,–,–,–,–,–,–,–,–,–,–,–,powerful urease inhibitors,–,–,–
"NP(N)(=S)Oc1ccccc1 [PTPDA, Phenylthiophosphenyl diamidate]",–,–,100.0,97.2,65.7,–,–,–,–,–,–,56,21,24,2,less effective as an inhibitor,–,–,–
"NP(N)(N)=S [TPTA, Thiophosphoryl triamide]",71.7,34.9,100.0,88.0,61.1,59,54,54,19,27,2,47,13,37,18,ineffective as a urease inhibitor,–,superior to PPDA,superior
NP(N)(=O)O [diamidophosphoric acid],–,–,–,–,–,–,–,–,–,–,–,–,–,–,–,effective urease inhibitors,–,–,–
Oc1ccc(O)cc1 [hydroquinone],–,–,–,–,–,–,–,–,–,–,–,–,–,–,–,–,mixed inhibition mechanism,–,–
NP(=O)(O)O [monoamidophosphoric acid],–,–,–,–,–,–,–,–,–,–,–,–,–,–,–,effective urease inhibitors,–,–,–
